Measurements taken from patent US20260217656A1, “Compounds Affecting KRAS” (UNIVERSITAT DE BARCELONA, priority 2022, published 2026).
“Also recorded” adds a separate entry of the source.

What was measured:
Assay type in all cases: cell-based, human
DLD-1-KO cells [1] = test: Cleaved caspase-3 Western blot, DLD-1-KO; conditions: DLD-1-KO cells treated 34 h or 48 h
Description: (§1) FIG. 6C is a blot showing extracts of DLD-1, DLD-1-KO and RPE cells at 34 h. and 48 h. DLD-1 cells treated with P14B for 36 h and 48 h were lysed and the expression of the apoptosis marker cleaved caspase-3 was analyzed by Western blot. Cells treated with the apoptosis inducer palmitic acid (PA) were used as a positive control.
(§2) Proteins were resolved by SDS-PAGE, transferred onto PVDF membranes (Immobilon-P, Millipore) and Western blot was performed as previously described (Cabot et al, Oncogene 2021). […]
(§3) Since both inhibition and sustained activation of RAS signaling are related to a decrease in cell survival, we analyzed the viability of the CRC cell lines DLD-1 (expressing oncogenic KRAS) and DLD-1-KO (oncogenic KRAS allele deleted), and the non-transformed cell line hTERT-RPE. […] The effect of P14B in DLD-1 cells cultured in 3D conditions was also determined. […]

hTERT-RPE cells = test: Cleaved caspase-3 Western blot, hTERT-RPE; conditions: hTERT-RPE cells treated 34 h or 48 h
Description: as §1, §2, §3

DLD-1-KO cells [2] = test: MTS cell viability assay, DLD-1-KO; conditions: at approximately 80 μM
Description: (§4) DLD-1 (KRASWT/G13D) (clone V15, #HD PAR-086) colorectal adenocarcinoma cell line and DLD-1 knockout of mutant KRAS allele, DLD-1 KO (KRASWT/−) (clone DWT7, #HD105-002), were obtained from Horizon Discovery Ltd. (Cambridge, UK). hTERT-RPE (KRASWT/WT) immortalized retinal pigment epithelial human cell line was obtained from the […] (ATCC). DLD-1 KO cells stably expressing HA-KRAS G12V were previously generated in our laboratory (Cabot et al., 2021). All cells were grown in DMEM-HAM s F12 (1:1) supplemented with 10% foetal bovine serum (Biological Industries, Israel), penicillin, streptomycin, and nonessential amino acids. Cells were tested once per month for mycoplasma contamination.
10,000 cells in 50 µL of 10% FBS-containing medium, were cultured for 24 hours and then treated with the compounds (50 μL final volume) for 48 h hours in each well of a 96-well plate (100 μL final volume). MTS viability assay (CellTiter 96® Aqueous One Solution Cell Proliferation Assay, Promega G3580) was assessed following the company conditions. The absorbance of each well was measured with a multimode plate reader (Spark, Tecan) at 490 nm. The percentage of cell viability was calculated by dividing the absorbance of each well by the average absorbance of the control wells. […]

[3] = system: Ras effectors ERK and AKT in DLD-1 cells; test: Western blot of downstream RAS signaling (P-ERK, P-AKT, P-MEK) in serum-starved DLD-1 cells
Description: as §4
Cells were seeded in a media containing 10% FBS for 24 hours and then they were serum starved (0.1% FBS) for the next 24 hours. Afterwards, they were incubated with the different compounds during the times specified in each figure. When indicated, also in order to activate downstream KRAS cell signalling, treatment for 10 minutes with EGF (50 ng/mL) (Sigma-Aldrich) was performed.
Proteins were resolved by SDS-PAGE, transferred onto PVDF membranes (Immobilon-P, Millipore) and Western blot was performed as previously described (Cabot et al, Oncogene 2021). The following primary antibodies were used: anti-c-RAF (BD Transduction 610151, 1:500); anti-phospho-c-RAF S338 (Cell Signaling 9427, 1:500); anti-AKT (Cell Signaling 9272, 1:1000); anti-phospho-AKT T308 (Cell Signaling 4056, 1:1000); anti-phospho-MEK1/2 S221 (Cell Signalling […]); anti-p44/42 MAPK (ERK1/2) (Cell Signaling 9102, 1:2000); anti-phospho-p44/42 MAPK(ERK1/2) T202/Y204 (Cell Signaling 4370, 1:2000); anti-HA (Sigma-Aldrich H6908, 1:1000); anti-cleaved-caspase-3 (Asp175) (Cell Signaling 9661, 1:1000); HRP-coupled secondary antibodies used: goat anti-rabbit (BioRad 170-6515, 1:3000) or goat anti-mouse (BioRad 170 6516, 1:3000).
For analysis of RAS signalling, cells were lysed in a buffer containing 67 mM Tris-HCl pH 6.8 and 2% SDS and then the samples were heated at 97° C. for 15 minutes. Protein concentration of the lysates was assessed using the Lowry method. An aliquot of […] of protein per sample was loaded onto the gels.
We first analyzed the effect of P14 on the activation of downstream RAS signaling pathways (RAF/MEK/ERK and PI3K/AKT) in DLD-1 cells (CRC cells carrying one oncogenic KRAS allele). To this end, DLD-1 serum-starved cells (0.1% FCS) were treated with P14 (100 μM) at different times, and activation of AKT and ERK was evaluated by Western blot. […] As a 3-hour treatment was associated with major effects, we chose this duration for the subsequent experiments with the other compounds. Next, DLD-1 serum-starved cells were treated with P14A-P14C at 100 μM for 3 hours and activation of AKT and ERK was assessed as above. […] The kinetics of RAS downstream signaling was analyzed in P14B-treated cells compared to 10% FBS serum.

[4] = DLD-1 serum-starved cells, 100 μM, 3 hours
[5] = DLD-1 starved cells, time course 15 min to 6 hours

COc1ccc(C(c2c(C)n[nH]c2O)c2c(C)n[nH]c2O)cc1Oc1ccc([N+](=O)[O-])cc1 [Example P14B]
cleaved caspase-3 expression (DLD-1-KO cells [1]): undetectable
cleaved caspase-3 expression (hTERT-RPE cells): undetectable
cell viability (DLD-1-KO cells [2]): not affected
AKT and ERK phosphorylation ([3]; DLD-1 serum-starved cells (0.1% FCS), 100 μM): dramatically increased; also recorded: increases endogenous downstream RAS signaling
activation of AKT and ERK [3, 4]: activated AKT and ERK kinases; also recorded: increase AKT and/or ERK signalling
relative capacity to activate Ras effectors ERK and AKT among the compounds [3, 4]: most efficient; also recorded: greatest capacity to activate Ras signaling; also recorded: highest activation of both Ras effectors
duration of ERK phosphorylation compared with 10% FBS [3, 5]: maintained for a longer time; also recorded: more sustained
onset of ERK and MEK activation compared with 10% FBS [3, 5]: clearly delayed
